The structures appear in SMILES notation. Structures can show the parent of a compound that is named as a salt.

Experimental findings from US20100010219A1, “METHOD FOR PRODUCING PYRROLIDINE COMPOUND” (JAPAN TOBACCO INC., priority 2006, published 2010) are described below.

The assay has as its target T1, human HSD-1 (recombinant HSD-1) (Homo sapiens, UniProt P28845).
T1 construct: made in house
Kind of assay: HSD-1 activity inhibitory action in vitro (SPA, conversion of cortisone to cortisol). Type of assay: biochemical. Conditions: recombinant human HSD-1 expressed using baculovirus system; 10 nM 3H cortisone, 500 μM NADPH; room temperature 90 to 120 min; read-out: hHSD1 (IC50 (nM)).

T1 sequence (P28845 whole entry): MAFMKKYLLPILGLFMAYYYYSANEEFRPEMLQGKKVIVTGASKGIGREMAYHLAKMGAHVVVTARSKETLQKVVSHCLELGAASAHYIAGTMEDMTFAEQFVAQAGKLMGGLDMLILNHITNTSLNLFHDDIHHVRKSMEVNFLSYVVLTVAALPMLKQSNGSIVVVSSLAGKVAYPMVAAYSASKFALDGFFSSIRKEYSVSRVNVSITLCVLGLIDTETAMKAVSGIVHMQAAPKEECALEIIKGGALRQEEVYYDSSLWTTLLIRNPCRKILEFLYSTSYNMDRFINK

Consider `CC(=O)NCC(=O)N1CCC(n2ncc(C(=O)N3CC[C@@H](c4ccccc4C(F)(F)F)C3)c2C2CC2)CC1` [Example 68, 1-{1-[1-(2-acetylaminoacetyl)piperidin-4-yl]-5-cyclopropyl-1H-pyrazole-4-carbonyl}-[(S)-3-(2-trifluoromethylphenyl)]pyrrolidine], for which the IC50 is < 30 nM.

For `O=C(c1ccccc1Cl)N1CCC(n2ncc(C(=O)N3CCC(c4cccnc4)C3)c2C2CC2)CC1` (centres unmarked) [Example 157, 1-{1-[1-(2-chlorobenzoyl)piperidin-4-yl]-5-cyclopropyl-1H-pyrazole-4-carbonyl}-3-(pyridin-3-yl)pyrrolidine], the IC50 was < 30 nM.

Consider `COC(=O)c1ccccc1C1CCN(C(=O)c2cnn(C3CCN(c4ncccn4)CC3)c2C2(C)CC2)C1` (centres unmarked) [Example 179, methyl 2-{1-[5-(1-methylcyclopropyl)-1-(1-pyrimidin-2-ylpiperidin-4-yl)-1H-pyrazole-4-carbonyl]pyrrolidin-3-yl}benzoate], for which the IC50 is < 30 nM.

For `CC(=O)N1CCC(C(=O)N2CCC(n3ncc(C(=O)N4CC[C@@H](c5ccccc5C(F)(F)F)C4)c3C3CC3)CC2)CC1` [Example 91, 1-{1-[1-(1-acetylpiperidine-4-carbonyl)piperidin-4-yl]-5-cyclopropyl-1H-pyrazole-4-carbonyl}-[(S)-3-(2-trifluoromethylphenyl)]pyrrolidine], the IC50 is < 30 nM. The value for `CC(=O)Nc1ccc(N2CCC(n3ncc(C(=O)N4CCC(c5ccccc5C(F)(F)F)C4)c3C3CC3)CC2)cc1` (centres unmarked) [Example 182, 1-{1-[1-(4-acetylaminophenyl)piperidin-4-yl]-5-cyclopropyl-1H-pyrazole-4-carbonyl}-3-(2-trifluoromethylphenyl)pyrrolidine] was < 30 nM; that for `NC1CCN(C(=O)N2CCC(n3ncc(C(=O)N4CC[C@@H](c5ccccc5C(F)(F)F)C4)c3C3CC3)CC2)C1` (stereo partly drawn) [Example 36, 1-{1-[1-(3-aminopyrrolidine-1-carbonyl)piperidin-4-yl]-5-cyclopropyl-1H-pyrazole-4-carbonyl}-[(S)-3-(2-trifluoromethylphenyl)]pyrrolidine hydrochloride] was < 30 nM; that for `NC1CCN(C(=O)N2CCC(n3ncc(C(=O)N4CC[C@@H](c5ccccc5C(F)(F)F)C4)c3C3CC3)CC2)CC1` [Example 35, 1-{1-[1-(4-aminopiperidine-1-carbonyl)piperidin-4-yl]-5-cyclopropyl-1H-pyrazole-4-carbonyl}-[(S)-3-(2-trifluoromethylphenyl)]pyrrolidine hydrochloride] was < 30 nM.

Regarding `NC(=O)[C@H]1CC[C@H](n2ncc(C(=O)N3CC[C@@H](c4ccccc4C(F)(F)F)C3)c2C2CC2)CC1` [Example 130, 1-[1-(trans-4-carbamoylcyclohexyl)-5-cyclopropyl-1H-pyrazole-4-carbonyl]-[(S)-3-(2-trifluoromethylphenyl)]pyrrolidine], the IC50 was < 30 nM.

With `CC(=O)N[C@H](C(=O)N1CCC(n2ncc(C(=O)N3CC[C@@H](c4ccccc4C(F)(F)F)C3)c2C2CC2)CC1)C(C)C` [Example 72, 1-(1-{1-[(S)-2-acetylamino-3-methylbutyryl]piperidin-4-yl}-5-cyclopropyl-1H-pyrazole-4-carbonyl)-[(S)-3-(2-trifluoromethylphenyl)]pyrrolidine], the 50% inhibitory concentration (IC50) was < 30 nM. The same measure for `O=C(c1cnn(C2CCN(C(=O)N3CC[C@H](O)C3)CC2)c1C1CC1)N1CC[C@@H](c2ccccc2C(F)(F)F)C1` [Example 22, 1-(5-cyclopropyl-1-{1-[(S)-3-hydroxypyrrolidine-1-carbonyl]piperidin-4-yl}-1H-pyrazole-4-carbonyl)-[(S)-3-(2-trifluoromethylphenyl)]pyrrolidine]: < 30 nM. Turning to `NC(=O)C1(CN2CCC(n3ncc(C(=O)N4CC[C@@H](c5ccccc5C(F)(F)F)C4)c3C3CC3)CC2)CC1` [Example 106, 1-{1-[1-(1-carbamoylcyclopropylmethyl)piperidin-4-yl]-5-cyclopropyl-1H-pyrazole-4-carbonyl}-[(S)-3-(2-trifluoromethylphenyl)]pyrrolidine hydrochloride], the IC50 was < 30 nM.

In the case of `O=C(OCCN1CCCCC1)N1CCC(n2ncc(C(=O)N3CC[C@@H](c4ccccc4C(F)(F)F)C3)c2C2CC2)CC1` [Example 60, 1-{5-cyclopropyl-1-[1-(2-piperidin-1-yl-ethoxycarbonyl)piperidin-4-yl]-1H-pyrazole-4-carbonyl}-[(S)-3-(2-trifluoromethylphenyl)]pyrrolidine hydrochloride], the IC50 was < 30 nM.

Turning to `CC(=O)NC1CCN(C(=O)N2CCC(n3ncc(C(=O)N4CC[C@@H](c5ccccc5C(F)(F)F)C4)c3C3CC3)CC2)C1` (stereo partly drawn) [Example 40, 1-{1-[1-(3-acetylaminopyrrolidine-1-carbonyl)piperidin-4-yl]-5-cyclopropyl-1H-pyrazole-4-carbonyl}-[(S)-3-(2-trifluoromethylphenyl)]pyrrolidine], the IC50 was < 30 nM. The value for `O=C(c1cnn(C2CCN(C3CC3)CC2)c1C1CC1)N1CC[C@@H](c2ccccc2C(F)(F)F)C1` [Example 99, 1-[5-cyclopropyl-1-(1-cyclopropylpiperidin-4-yl)-1H-pyrazole-4-carbonyl]-[(S)-3-(2-trifluoromethylphenyl)]pyrrolidine hydrochloride] was < 30 nM.
